Measured values taken from US20230219965A1 (KSQ Therapeutics, Inc., priority 2020, published 2023).

biological target: USP1/UAF1 enzyme (Homo sapiens, UniProt O94782); test: USP1/UAF1 deubiquitination assay (ubiquitin-rhodamine 110 substrate); type: biochemical; details: read-out: USP1 IC50 (Ub-Rho)
Procedure: Certain Compounds of the Disclosure were assessed for USP1/UAF1 activity in a Ubiquitin Rhodamine assay modified from those described previously.
Deubiquitinase activity was measured using ubiquitin-rhodamine 110 as a substrate. Cleavage of the amide bond between rhodamine and the c-terminal glycine of ubiquitin yields an increase in fluorescence signal. The assay was conducted in 20 μl total volume of assay buffer (50 mM Tris-HCl, pH 7.8, 0.5 mM EDTA, 0.01% Bovine Serum Albumin, 1 mM DTT, 0.01% Tween-20), and 0.05 nM USP1/UAF1 enzyme. Reaction was initiated by addition of 150 nM Ubiquitin-rhodamine (Boston Biochem) substrate.
Compounds of the Disclosure, dissolved in DMSO were tested in dose response format, beginning at […].
The example compounds listed below were added to enzyme/assay buffer mix and incubated 10 min. Substrate mix was added, and reaction mix was read in kinetic mode for 30 min at Ex480/Em540 and IC50 response curves were plotted.
Data for all assay formats was calculated as percent inhibition compared with control wells. Percent inhibition was calculated using the following equation: % inhibition=100×[1−(X−min)/(max−min)], where X is the raw data readout, min is the average of the no enzyme control wells (n=32), max is the average of the DMSO control well (n=32). IC50 values were calculated using the standard four parameter curve fitting algorithm in either Prism GraphPad (La Jolla, Calif.) software, or Collaborative Drug Discovery (Burlingame, Calif.) CDD Vault. See Chem. Biol. 20(1): 55-62 (Jan. 24, 2013); Bioorg. Med. Chem. Lett. 23(20): 5660-5666 (Oct. 15, 2013).

Sequence of USP1/UAF1 enzyme (O94782 whole entry): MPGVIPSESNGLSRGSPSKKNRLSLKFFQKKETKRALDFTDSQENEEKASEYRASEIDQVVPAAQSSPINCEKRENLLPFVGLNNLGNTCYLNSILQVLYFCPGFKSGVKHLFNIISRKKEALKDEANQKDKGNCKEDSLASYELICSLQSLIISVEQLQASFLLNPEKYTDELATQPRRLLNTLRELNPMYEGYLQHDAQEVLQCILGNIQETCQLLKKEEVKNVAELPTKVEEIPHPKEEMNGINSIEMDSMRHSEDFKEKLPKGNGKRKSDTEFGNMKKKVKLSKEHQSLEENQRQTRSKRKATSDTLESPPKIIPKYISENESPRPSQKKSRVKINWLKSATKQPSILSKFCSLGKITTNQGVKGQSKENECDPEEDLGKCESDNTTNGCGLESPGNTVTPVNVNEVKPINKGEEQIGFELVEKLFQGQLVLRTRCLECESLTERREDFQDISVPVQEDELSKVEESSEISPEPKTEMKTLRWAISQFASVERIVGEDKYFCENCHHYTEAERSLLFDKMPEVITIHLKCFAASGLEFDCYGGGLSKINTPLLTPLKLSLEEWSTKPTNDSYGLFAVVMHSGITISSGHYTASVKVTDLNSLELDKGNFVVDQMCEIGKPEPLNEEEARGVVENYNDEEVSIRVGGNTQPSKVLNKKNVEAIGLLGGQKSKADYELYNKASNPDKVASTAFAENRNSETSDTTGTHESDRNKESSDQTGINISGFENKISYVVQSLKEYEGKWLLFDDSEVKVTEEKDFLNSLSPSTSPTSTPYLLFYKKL
Sequence of USP1/UAF1 enzyme (Q8TAF3 whole entry partner): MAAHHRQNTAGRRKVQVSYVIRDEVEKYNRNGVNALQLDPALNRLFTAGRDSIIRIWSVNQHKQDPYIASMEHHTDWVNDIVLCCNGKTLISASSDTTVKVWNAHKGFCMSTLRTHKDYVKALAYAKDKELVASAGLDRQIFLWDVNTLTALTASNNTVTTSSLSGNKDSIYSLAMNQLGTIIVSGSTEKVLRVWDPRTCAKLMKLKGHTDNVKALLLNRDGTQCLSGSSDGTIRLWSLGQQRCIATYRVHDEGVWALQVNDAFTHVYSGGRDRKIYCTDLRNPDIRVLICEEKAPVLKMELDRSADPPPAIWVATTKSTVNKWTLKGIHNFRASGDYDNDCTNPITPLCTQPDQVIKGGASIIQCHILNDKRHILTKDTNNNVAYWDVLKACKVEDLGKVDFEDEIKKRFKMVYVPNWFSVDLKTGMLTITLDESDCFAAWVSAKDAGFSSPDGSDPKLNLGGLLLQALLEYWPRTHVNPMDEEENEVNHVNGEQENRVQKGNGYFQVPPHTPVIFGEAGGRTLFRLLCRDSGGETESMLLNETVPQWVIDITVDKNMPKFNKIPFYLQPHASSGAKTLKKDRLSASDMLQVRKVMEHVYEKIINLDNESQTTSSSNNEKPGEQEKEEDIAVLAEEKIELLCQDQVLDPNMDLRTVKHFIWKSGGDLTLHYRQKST

Compound | IC50 [µM]
COc1ncnc(C2(C)CC2)c1-c1cc2n(n1)CCC(=O)N2Cc1ccc(-c2nc(C(F)(F)F)cn2C)c(F)c1 [Example 149, 4-(3-fluoro-4-(1-methyl-4-(trifluoromethyl)-1H-imidazol-2-yl)benzyl)-2-(4-methoxy-6-(1-methylcyclopropyl)pyrimidin-5-yl)-6,7-dihydropyrazolo[1,5-α]pyrimidin-5(4H)-one] | 0.1 to 0.5
Cc1cc(-c2ccc(CN3C(=O)CCn4nc(-c5c(Cl)cnn5C(C)C)cc43)cc2Cl)n(C)n1 [Example 281] | > 0.5
CCn1cc(C(F)(F)F)nc1-c1ccc(CN2C(=O)CCn3nc(-c4c(Cl)cnn4C4CCOC4)cc32)cc1 (stereo not drawn) [Example 150] | 0.1 to 0.5
COc1ncnc(C2CC2)c1-c1cc2n(n1)CCC(=O)N2Cc1ccc(-c2nn(C)cc2C)cc1 [Example 90] | > 0.5
CC(C)n1ncc(Cl)c1-c1cc2n(n1)CCC(=O)N2Cc1ccc(-c2ncccc2OC(F)F)c(Cl)c1 [Example 271, 2-(4-chloro-1-isopropyl-1H-pyrazol-5-yl)-4-(3-chloro-4-(3-(difluoromethoxy)pyridin-2-yl)benzyl)-6,7-dihydropyrazolo[1,5-α]pyrimidin-5(4H)-one] | 0.1 to 0.5
COc1cc(C(F)(F)F)nn1-c1ccc(CN2C(=O)CCn3nc(-c4c(Cl)cnn4C(C)C)cc32)cn1 [Example 89] | < 0.1
COc1ncnc(C2CC2)c1-c1cc2n(n1)CCC(=O)N2C(C)c1ccc(-c2nc(C(F)(F)F)cn2C)cc1 (stereo not drawn) [Example 3, 2-(4-cyclopropyl-6-methoxypyrimidin-5-yl)-4-(1-(4-(1-methyl-4-(trifluoromethyl)-1H-imidazol-2-yl)phenyl)ethyl)-6,7-dihy dropyrazolo[1,5-a]pyrimidin-5(4H)-one] | 0.1 to 0.5
CCn1nc(-c2ccc(CN3C(=O)CCn4nc(-c5c(C)cnn5C(C)C)cc43)cc2)nc1C(F)(F)F [Example 15, 4-(4-(1-ethyl-5-(trifluoromethyl)-1H-1,2,4-triazol-3-yl)benzyl)-2-(1-isopropyl-4-methyl-1H-pyrazol-5-yl)-6,7-dihydropyrazolo[1,5-a]pyrimidin-5(4H)-one] | > 0.5
CC(C)n1ncc(Cl)c1-c1nc2n(n1)CCC(=O)N2Cc1ccc(-c2ncccc2OCC(F)F)cc1 [Example 322] | 0.1 to 0.5
COc1ncnc(C2CC2)c1-c1cc2n(n1)CCC(=O)N2Cc1ccc(-c2nc(C(F)(F)F)cn2CCF)cc1 [Example 81] | < 0.1
[2H]C([2H])([2H])C([2H])([2H])n1cc(C(F)(F)F)nc1-c1ccc(CN2C(=O)CCn3nc(-c4c(OC(F)F)ncnc4C4CC4)nc32)cc1 [Example 375, 2-(4-cyclopropyl-6-(difluoromethoxy)pyrimidin-5-yl)-4-(4-(1-(ethyl-d5)-4-(trifluoromethyl)-1H-imidazol-2-yl)benzyl)-6,7-dihydro-[1,2,4]triazolo[1,5-a]pyrimidin-5(4H)-one] | < 0.1
CC(C)n1ncc(Cl)c1-c1cc2n(n1)CCC(=O)N2Cc1ccc(-n2ccc(N3CCOCC3)n2)cc1 [Example 230, 2-(4-chloro-1-isopropyl-1H-pyrazol-5-yl)-4-(4-(3-morpholino-1H-pyrazol-1-yl)benzyl)-6,7-dihydropyrazolo[1,5-α]pyrimidin-5(4H)-one] | > 0.5
COc1c(C)ccnc1-c1ccc(CN2C(=O)CCn3nc(-c4c(Cl)cnn4C(C)C)cc32)cc1Cl [Example 298] | 0.1 to 0.5
CCn1cc(C(F)(F)F)nc1-c1ccc(N(C)C2CCCn3nc(-c4c(Cl)cnn4C(C)C)nc32)cc1F (stereo not drawn) [Example 259] | 0.1 to 0.5
CC(C)n1ncc(Cl)c1-c1cc2n(n1)CCC(=O)N2Cc1ccc(-c2nc(C(F)(F)F)n(C)n2)cc1 [Example 101] | 0.1 to 0.5
CC(CF)n1cc(C(F)(F)F)nc1-c1ccc(CN2C(=O)CCn3nc(-c4c(OC(F)F)ncnc4C4CC4)nc32)cc1 (stereo not drawn) [Example 366, 2-(4-cyclopropyl-6-(difluoromethoxy)pyrimidin-5-yl)-4-(4-(1-(1-fluoropropan-2-yl)-4-(trifluoromethyl)-1H-imidazol-2-yl)benzyl)-6,7-dihydro-[1,2,4]triazolo[1,5-a]pyrimidin-5(4H)-one] | < 0.1
COc1ncnc(C2CC2)c1-c1cc2n(n1)CCCC2Nc1ccc(-c2nc(C(F)(F)F)cn2C)c(F)c1 (stereo not drawn) [Example 388, 2-(4-cyclopropyl-6-methoxypyrimidin-5-yl)-N-(3-fluoro-4-(1-methyl-4-(trifluoromethyl)-1H-imidazol-2-yl)phenyl)-4,5,6,7-tetrahydropyrazolo[1,5-a]pyridin-4-amine] | < 0.1
CC(C)n1cc(C(F)(F)F)nc1-c1ccc(CN2C(=O)CCn3nc(-c4c(Cl)cnn4C(C)C)nc32)cc1OCCO [Example 228, 2-(4-chloro-1-isopropyl-1H-pyrazol-5-yl)-4-(3-(2-hydroxyethoxy)-4-(1-isopropyl-4-(trifluoromethyl)-1H-imidazol-2-yl)benzyl)-6,7-dihydro-[1,2,4]triazolo[1,5-α]pyrimidin-5(4H)-one] | 0.1 to 0.5

Compound | IC50 [µM]
CC(C)n1ncc(Cl)c1-c1cc2n(n1)CCC(=O)N2Cc1ccc(-c2nccc3c2N(C)CCO3)c(Cl)c1 [Example 299] | > 0.5
CCn1cc(C(F)(F)F)nc1-c1ccc(C(C)N2C(=O)C(C)Cn3nc(-c4c(OC)ncnc4C4CC4)nc32)cc1 (stereo not drawn) [Example 384, 2-(4-cyclopropyl-6-methoxypyrimidin-5-yl)-4-(1-(4-(1-ethyl-4-(trifluoromethyl)-1H-imidazol-2-yl)phenyl)ethyl)-6-methyl-6,7-dihydro-[1,2,4]triazolo[1,5-a]pyrimidin-5(4H)-one] | < 0.1
CCn1cc(C(F)(F)F)nc1-c1ccc(CN2C(=O)CCn3nc(-c4c(Cl)cnn4C(C)C)c(N)c32)cc1 [Example 229, 3-amino-2-(4-chloro-1-isopropyl-1H-pyrazol-5-yl)-4-(4-(1-ethyl-4-(trifluoromethyl)-1H-imidazol-2-yl)benzyl)-6,7-dihydropyrazolo[1,5-α]pyrimidin-5(4H)-one] | 0.1 to 0.5
COc1cncnc1-c1ccc(CN2C(=O)CCn3nc(-c4c(Cl)cnn4C(C)C)cc32)cc1Cl [Example 318] | > 0.5
O=C1CCn2nc(-c3c(OC(F)F)ncnc3C3CC3)nc2N1Cc1ccc(-c2nc(C(F)(F)F)cn2CCF)cc1 [Example 367, 2-(4-cyclopropyl-6-(difluoromethoxy)pyrimidin-5-yl)-4-(4-(1-(2-fluoroethyl)-4-(trifluoromethyl)-1H-imidazol-2-yl)benzyl)-6,7-dihydro-[1,2,4]triazolo[1,5-a]pyrimidin-5(4H)-one] | < 0.1
CCn1cc(C#N)nc1-c1ccc([C@H](C)N2C(=O)CCn3nc(-c4c(OC)ncnc4C4CC4)nc32)cc1 [Example 198] | > 0.5
COc1cccnc1-c1ccc(CN2C(=O)CCn3nc(-c4c(OC)ncnc4C4CC4)cc32)cc1Cl [Example 313] | 0.1 to 0.5
Cc1ncc(-c2ccc(CN3C(=O)CCn4nc(-c5c(Cl)cnn5C(C)C)cc43)cc2Cl)n1C [Example 284] | > 0.5
CCn1cc(C(F)(F)F)nc1-c1ccc(CN2C(=O)CCn3nc(-c4c(Cl)cnn4C(C)CO)cc32)cc1 (stereo not drawn) [Example 227, 2-(4-chloro-1-(1-hydroxypropan-2-yl)-1H-pyrazol-5-yl)-4-(4-(1-ethyl-4-(trifluoromethyl)-1H-imidazol-2-yl)benzyl)-6,7-dihydropyrazolo[1,5-α]pyrimidin-5(4H)-one] | 0.1 to 0.5
CCn1cc(C(F)(F)F)nc1-c1ccc(CN2C(=O)CCn3nc(-c4c(OC)ncnc4OC(F)F)nc32)cc1 [Example 376, 2-(4-(difluoromethoxy)-6-methoxypyrimidin-5-yl)-4-(4-(1-ethyl-4-(trifluoromethyl)-1H-imidazol-2-yl)benzyl)-6,7-dihydro-[1,2,4]triazolo[1,5-a]pyrimidin-5(4H)-one] | < 0.1
CC(C)Oc1cccnc1-c1ccc(CN2C(=O)CCn3nc(-c4c(Cl)cnn4C(C)C)nc32)cc1Cl [Example 302] | 0.1 to 0.5
CCn1cc(C(F)(F)F)nc1-c1ccc(CN2C(=O)CCn3nc(-c4c(C(C)C)cnn4C)cc32)cc1 [Example 158] | > 0.5
COc1ncnc(C2CC2)c1-c1nc2n(n1)CCC(=O)N2C(C)c1ccc(-n2nc(C(F)(F)F)cc2OCC(F)F)cc1 (stereo not drawn) [Example 214] | < 0.1
COc1ncnc(C)c1-c1cc2n(n1)CCCN2Cc1ccc(-n2nc(C(F)(F)F)cc2C)cc1 [Example 26] | 0.1 to 0.5
CC(C)n1ncc(Cl)c1-c1cc2n(n1)CCC(=O)N2Cc1ccc(-c2cncc(C(F)(F)F)n2)c(Cl)c1 [Example 272] | > 0.5
COc1ncnc(C2CC2)c1-c1nc2n(n1)CCC(=O)N2C(C)c1ccc(-c2ncccc2OC(C)C)cc1 (stereo not drawn) [Example 220] | < 0.1
COc1ccnn1-c1ccc(CN2C(=O)CCn3nc(-c4c(Cl)cnn4C(C)C)cc32)cc1 [Example 117] | 0.1 to 0.5
CCn1cc(C(F)(F)F)nc1-c1ccc([C@@H](C)N2C(=O)CCn3nc(-c4c(C#N)cnn4C(C)C)cc32)cc1F [Example 326, (R)-5-(4-(1-(4-(1-ethyl-4-(trifluoromethyl)-1H-imidazol-2-yl)-3-fluorophenyl)ethyl)-5-oxo-4,5,6,7-tetrahydropyrazolo[1,5-α]pyrimidin-2-yl)-1-isopropyl-1H-pyrazole-4-carbonitrile] | 0.1 to 0.5
